Measured values from the supplement of paper PMC11208160.

Test: recombinant UMI read abundance after kanamycin selection (control-corrected) (log10(CPM+1)); higher = more efficient recombination; extreme values may be limits of the assay; sequences stand for … in AGTGCAGAGAAAATCGGCCAGTTTTCTCTGCCTGCAGTCCGCATGCCGTGGGACCCCTTGGGTTCTAACCTGTTGCCTAGATTTATGCAGCGGACTGCCTTTCTCCCAAAGTGATAAACCGG…AGGTTGGTTTCACT; site = the 11-nt donor
Summary of the method: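 Sequenced counts of recombinant UMIs were turned into CPM, averaged across replicates and scaled with control-derived factors. The reported figure is log10(CPM+1). Those UMIs, each 12 nt long, tagged donor and donor-binding-loop pairs on a plasmid with a promoterless kanamycin gene, screened as a pool in Escherichia coli with IPTG (0.07 mM) plus kanamycin or without selection.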
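Also: IS621 bridge recombinase in Escherichia coli cells against a fixed T5 target plasmid.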

“CCCTAGCCATGGACCGGTTTTCCCGGTAATCCGTATTTGCC (site CCCTACCCTGG)” and “CCCTAGCCATGGACCGGTTTTCCCGGTAATCCGTATTTGCC (site CCCTAGACTGG)” are the same in “recombinant UMI read abundance (log10)” value: 0 for the first, 0 for the second.

“CCCTAGCCATGGACCGGTTTTCCCGGTAATCCGTATTTGCC (site CCCTAGCCTAG)” and “CCCTAGCCATGGACCGGTTTTCCCGGTAATCCGTATTTGCC (site CCCTAGCCTCG)” are within 0.2 log units of each other in “recombinant UMI read abundance (log10)” value: 0.00741 for the first, 0.00555 for the second.

“CCCTAGCCATGGACCGGTTTTCCCGGTAATCCGTATTTGCC (site CCCTAGCCTGA)” and “CCCTAGCCATGGACCGGTTTTCCCGGTAATCCGTATTTGCC (site CCCTAGCCTGC)” are the same in “recombinant UMI read abundance (log10)” value: 0 for the first, 0 for the second.

“CCCTAGCCATGGACCGGTTTTCCCGGTAATCCGTATTTGCC (site CCCTAGCCTGG)” and “CCCTAGCCATGGACCGGTTTTCCCGGTAATCCGTATTTGCC (site CCCTAGCCTGT)” are the same in “recombinant UMI read abundance (log10)” value: 0 for the first, 0 for the second.

“CCCTAGCCATGGACCGGTTTTCCCGGTAATCCGTATTTGCC (site CCCTAGCCTTG)” and “CCCTAGCCATGGACCGGTTTTCCCGGTAATCCGTATTTGCC (site CCCTAGGCTGG)” are within 0.2 log units of each other in “recombinant UMI read abundance (log10)” value: 0.00543 for the first, 0 for the second.

Compared with “CCCTAGCCATGGACCGGTTTTCCCGGTAATCCGTATTTGCC (site CCCTAGTCTGG)”, “CCCTAGCCATGGACCGGTTTTCCCGGTAATCCGTATTTGCC (site CCCTATCCTGG)” is lower in “recombinant UMI read abundance (log10)” value: 1.15 for the first, 0 for the second.

“CCCTAGCCATGGACCGGTTTTCCCGGTAATCCGTATTTGCC (site CCCTCGCCTGG)” and “CCCTAGCCATGGACCGGTTTTCCCGGTAATCCGTATTTGCC (site CCCTGGCCTGG)” are the same in “recombinant UMI read abundance (log10)” value: 0 for the first, 0 for the second.

“CCCTAGCCATGGACCGGTTTTCCCGGTAATCCGTATTTGCC (site CCCTTGCCTGG)” and “CCCTAGCCATGGACCGGTTTTCCCGGTAATCCGTATTTGCC (site CCGTAGCCTGG)” are the same in “recombinant UMI read abundance (log10)” value: 0 for the first, 0 for the second.

“CCCTAGCCATGGACCGGTTTTCCCGGTAATCCGTATTTGCC (site CCTTAGCCTGG)” and “CCCTAGCCATGGACCGGTTTTCCCGGTAATCCGTATTTGCC (site CGCTAGCCTGG)” are the same in “recombinant UMI read abundance (log10)” value: 0 for the first, 0 for the second.

“CCCTAGCCATGGACCGGTTTTCCCGGTAATCCGTATTTGCC (site CTCTAGCCTGG)” and “CCCTAGCCATGGACCGGTTTTCCCGGTAATCCGTATTTGCC (site GCCTAGCCTGG)” are the same in “recombinant UMI read abundance (log10)” value: 0 for the first, 0 for the second.

“CCCTAGCCATGGACCGGTTTTCCCGGTAATCCGTATTTGCC (site TCCTAGCCTGG)” and “CCCTAGGCATGGACCGGTTTTCCCGGTAATCCGTATTTGCC (site CCCTAGACTGG)” are the same in “recombinant UMI read abundance (log10)” value: 0 for the first, 0 for the second.

“CCCTAGGCATGGACCGGTTTTCCCGGTAATCCGTATTTGCC (site CCCTAGCCTGG)” and “CCCTAGGCATGGACCGGTTTTCCCGGTAATCCGTATTTGCC (site CCCTAGGCTGG)” are the same in “recombinant UMI read abundance (log10)” value: 0 for the first, 0 for the second.

Compared with “CCCTAGGCATGGACCGGTTTTCCCGGTAATCCGTATTTGCC (site CCCTAGTCTGG)”, “CCCTAGTCATGGACCGGTTTTCCCGGTAATCCGTATTTGCC (site CCCTAGACTGG)” is higher in “recombinant UMI read abundance (log10)” value: 0 for the first, 0.402 for the second.

“CCCTAGTCATGGACCGGTTTTCCCGGTAATCCGTATTTGCC (site CCCTAGCCTGG)” and “CCCTAGTCATGGACCGGTTTTCCCGGTAATCCGTATTTGCC (site CCCTAGGCTGG)” are the same in “recombinant UMI read abundance (log10)” value: 0 for the first, 0 for the second.

Going from “CCCTAGTCATGGACCGGTTTTCCCGGTAATCCGTATTTGCC (site CCCTAGTCTGG)” to “CCCTCAACATGGACCGGTTTTCCCGGTAATCCGTATTTGCA (site CCCTCAACTTG)”, the “recombinant UMI read abundance (log10)” value falls from 1.23 to 0.377.

Compared with “CCCTCTACATGGACCGGTTTTCCCGGTAATCCGTATTTGCT (site CCCTCTACTAG)”, “CCCTGTCCATGGACCGGTTTTCCCGGTAATCCGTATTTGCA (site CCCAGTCCTTG)” is lower in “recombinant UMI read abundance (log10)” value: 1.58 for the first, 0 for the second.

“CCCTGTCCATGGACCGGTTTTCCCGGTAATCCGTATTTGCA (site CCCCGTCCTTG)” and “CCCTGTCCATGGACCGGTTTTCCCGGTAATCCGTATTTGCA (site CCCGGTCCTTG)” are within 0.2 log units of each other in “recombinant UMI read abundance (log10)” value: 0.0428 for the first, 0 for the second.

“CCCTGTCCATGGACCGGTTTTCCCGGTAATCCGTATTTGCA (site CCCTGTCCTTG)” and “CCCTTAGCATGGACCGGTTTTCCCGGTAATCCGTATTTGTG (site CCATTAGCTCA)” are within 0.2 log units of each other in “recombinant UMI read abundance (log10)” value: 0.00678 for the first, 0.0224 for the second.

“CCCTTAGCATGGACCGGTTTTCCCGGTAATCCGTATTTGTG (site CCCTTAGCTCA)” and “CCCTTAGCATGGACCGGTTTTCCCGGTAATCCGTATTTGTG (site CCGTTAGCTCA)” are within 0.2 log units of each other in “recombinant UMI read abundance (log10)” value: 0.0472 for the first, 0.00331 for the second.

“CCCTTAGCATGGACCGGTTTTCCCGGTAATCCGTATTTGTG (site CCTTTAGCTCA)” and “CCCTTCTCATGGACCGGTTTTCCCGGTAATCCGTATTTGGG (site ACCTTCTCTCC)” are within 0.2 log units of each other in “recombinant UMI read abundance (log10)” value: 0.0232 for the first, 0.00611 for the second.

“CCCTTCTCATGGACCGGTTTTCCCGGTAATCCGTATTTGGG (site CACTTCTCTCC)” and “CCCTTCTCATGGACCGGTTTTCCCGGTAATCCGTATTTGGG (site CCATTCTCTCC)” are within 0.2 log units of each other in “recombinant UMI read abundance (log10)” value: 0.00776 for the first, 0 for the second.

“CCCTTCTCATGGACCGGTTTTCCCGGTAATCCGTATTTGGG (site CCCATCTCTCC)” and “CCCTTCTCATGGACCGGTTTTCCCGGTAATCCGTATTTGGG (site CCCCTCTCTCC)” are within 0.2 log units of each other in “recombinant UMI read abundance (log10)” value: 0.0128 for the first, 0.0125 for the second.

“CCCTTCTCATGGACCGGTTTTCCCGGTAATCCGTATTTGGG (site CCCGTCTCTCC)” and “CCCTTCTCATGGACCGGTTTTCCCGGTAATCCGTATTTGGG (site CCCTACTCTCC)” are within 0.2 log units of each other in “recombinant UMI read abundance (log10)” value: 0.00385 for the first, 0.0199 for the second.

“CCCTTCTCATGGACCGGTTTTCCCGGTAATCCGTATTTGGG (site CCCTCCTCTCC)” and “CCCTTCTCATGGACCGGTTTTCCCGGTAATCCGTATTTGGG (site CCCTGCTCTCC)” are within 0.2 log units of each other in “recombinant UMI read abundance (log10)” value: 0.0129 for the first, 0.0154 for the second.

“CCCTTCTCATGGACCGGTTTTCCCGGTAATCCGTATTTGGG (site CCCTTATCTCC)” and “CCCTTCTCATGGACCGGTTTTCCCGGTAATCCGTATTTGGG (site CCCTTCACTCC)” are within 0.2 log units of each other in “recombinant UMI read abundance (log10)” value: 0 for the first, 0.0149 for the second.

“CCCTTCTCATGGACCGGTTTTCCCGGTAATCCGTATTTGGG (site CCCTTCCCTCC)” and “CCCTTCTCATGGACCGGTTTTCCCGGTAATCCGTATTTGGG (site CCCTTCGCTCC)” are within 0.2 log units of each other in “recombinant UMI read abundance (log10)” value: 0.00574 for the first, 0.0128 for the second.

“CCCTTCTCATGGACCGGTTTTCCCGGTAATCCGTATTTGGG (site CCCTTCTCTAC)” and “CCCTTCTCATGGACCGGTTTTCCCGGTAATCCGTATTTGGG (site CCCTTCTCTCA)” are within 0.2 log units of each other in “recombinant UMI read abundance (log10)” value: 0 for the first, 0.0118 for the second.

“CCCTTCTCATGGACCGGTTTTCCCGGTAATCCGTATTTGGG (site CCCTTCTCTCC)” and “CCCTTCTCATGGACCGGTTTTCCCGGTAATCCGTATTTGGG (site CCCTTCTCTCG)” are within 0.2 log units of each other in “recombinant UMI read abundance (log10)” value: 0.0281 for the first, 0.0129 for the second.

“CCCTTCTCATGGACCGGTTTTCCCGGTAATCCGTATTTGGG (site CCCTTCTCTCT)” and “CCCTTCTCATGGACCGGTTTTCCCGGTAATCCGTATTTGGG (site CCCTTCTCTGC)” are within 0.2 log units of each other in “recombinant UMI read abundance (log10)” value: 0.0297 for the first, 0 for the second.

“CCCTTCTCATGGACCGGTTTTCCCGGTAATCCGTATTTGGG (site CCCTTCTCTTC)” and “CCCTTCTCATGGACCGGTTTTCCCGGTAATCCGTATTTGGG (site CCCTTGTCTCC)” are within 0.2 log units of each other in “recombinant UMI read abundance (log10)” value: 0.00791 for the first, 0.0418 for the second.

“CCCTTCTCATGGACCGGTTTTCCCGGTAATCCGTATTTGGG (site CCCTTTTCTCC)” and “CCCTTCTCATGGACCGGTTTTCCCGGTAATCCGTATTTGGG (site CCGTTCTCTCC)” are within 0.2 log units of each other in “recombinant UMI read abundance (log10)” value: 0.00608 for the first, 0 for the second.

“CCCTTCTCATGGACCGGTTTTCCCGGTAATCCGTATTTGGG (site CCTTTCTCTCC)” and “CCCTTCTCATGGACCGGTTTTCCCGGTAATCCGTATTTGGG (site CGCTTCTCTCC)” are within 0.2 log units of each other in “recombinant UMI read abundance (log10)” value: 0.00766 for the first, 0 for the second.

“CCCTTCTCATGGACCGGTTTTCCCGGTAATCCGTATTTGGG (site CTCTTCTCTCC)” and “CCCTTCTCATGGACCGGTTTTCCCGGTAATCCGTATTTGGG (site GCCTTCTCTCC)” are within 0.2 log units of each other in “recombinant UMI read abundance (log10)” value: 0.0147 for the first, 0.00558 for the second.

Compared with “CCCTTCTCATGGACCGGTTTTCCCGGTAATCCGTATTTGGG (site TCCTTCTCTCC)”, “CCCTTCTCATGGACCGGTTTTCCCGGTAATCCGTATTTGTG (site CCCTTCTCTCA)” is higher in “recombinant UMI read abundance (log10)” value: 0.0111 for the first, 0.583 for the second.

Going from “CCCTTCTCATGGACCGGTTTTCCCGGTAATCCGTATTTGTG (site CCCTTCTCTCC)” to “CCCTTCTCATGGACCGGTTTTCCCGGTAATCCGTATTTGTG (site CCCTTCTCTCG)”, the “recombinant UMI read abundance (log10)” value rises from 0.0231 to 0.995.

“CCCTTCTCATGGACCGGTTTTCCCGGTAATCCGTATTTGTG (site CCCTTCTCTCT)” and “CCCTTTTCATGGACCGGTTTTCCCGGTAATCCGTATTTGGG (site CCCTTATCTCC)” are within 0.2 log units of each other in “recombinant UMI read abundance (log10)” value: 0.00643 for the first, 0.00602 for the second.

“CCCTTTTCATGGACCGGTTTTCCCGGTAATCCGTATTTGGG (site CCCTTCTCTCC)” and “CCCTTTTCATGGACCGGTTTTCCCGGTAATCCGTATTTGGG (site CCCTTGTCTCC)” are within 0.2 log units of each other in “recombinant UMI read abundance (log10)” value: 0.0124 for the first, 0.0108 for the second.

With “CCCTTTTCATGGACCGGTTTTCCCGGTAATCCGTATTTGGG (site CCCTTTTCTCC)” the “recombinant UMI read abundance (log10)” value was 0.
